Paper PMC2248166, “Quantitative peptide binding motifs for 19 human and mouse MHC class I molecules derived using positional scanning combinatorial peptide libraries” (Immunome Research, 2008)

What was measured:
Format in all cases: binding
HLA A*3201 = HLA A*3201 (Homo sapiens, UniProt P04439, A270S/D101S/D185E/E176V/E277Q/F133L/G103R/G107R/G231S/H175R/I121M/I218V/I322F/K168Q/L105A/L300P/L318F/M331R/P208A/P217A/Q94H/R106L/R138Q/S129P/T104I/T323A/T345S/V100E/V321M/V358M); assay: biochemical
HLA B*1503 = HLA B*1503 (Homo sapiens, UniProt P01889, A329T/A93T/A95T/C349S/D201E/D98Y/E187L/E204Q/K202T/N87E/Q94N/R155S/R180L/S121R/S35A/V306I/V36M/Y140S/Y91S); assay: biochemical
HLA B*5101 = HLA B*5101 (Homo sapiens, UniProt P01889, A329T/A93T/A95T/C349S/D138N/D201E/D98Y/E187L/E204Q/E69T/G107R/I218V/K202T/L105A/L119W/N104I/Q94N/R106L/R155S/R180L/S101N/S121T/S35A/S48A/V306I/V36M/Y195H/Y91F)
H-2 D^b = H-2 D^b (Mus musculus, UniProt P01899)
HLA A*3001 = HLA A*3001 (Homo sapiens, UniProt P04439, D140H/D185E/E176W/F33S/G80R/H175R/K168Q/R138E/R41S); assay: biochemical
HLA B*3501 = HLA B*3501 (Homo sapiens, UniProt P01889, A329T/A93T/A95T/C349S/D201E/D98Y/E176V/E187L/E204Q/E69T/I218V/K202T/L119I/Q94N/R155S/R180L/S121R/S35A/S48A/T118I/V127L/V306I/V36M/Y140S/Y91F)
HLA B*1501 = HLA B*1501 (Homo sapiens, UniProt P01889, A329T/A93T/A95T/C349S/D201E/D98Y/E187L/E204Q/E69M/E70A/K202T/N87E/Q94N/R155S/R180W/S121R/S35A/S48A/V306I/V36M/Y140S/Y91S); assay: biochemical
H-2 K^d = H-2 K^d (Mus musculus, UniProt P01902)
HLA B*5802 = HLA B*5802 (Homo sapiens, UniProt P01889, A329T/C349S/D201E/D98Y/E176V/E187L/E204Q/E69T/G107R/I218V/I90N/K202T/L105A/N104I/N87E/Q89R/Q94S/R106L/R155S/R180L/R86G/S101N/S121W/S35A/S48A/V127L/V306I/V36M/Y140S/Y91M)
H-2 D^d = H-2 D^d (Mus musculus, UniProt P01900)
HLA B*5801 = HLA B*5801 (Homo sapiens, UniProt P01889, A329T/C349S/D201E/D98Y/E176V/E187L/E204Q/E69T/G107R/I218V/I90N/K202T/L105A/L119I/N104I/N87E/Q89R/Q94S/R106L/R155S/R180L/R86G/S101N/S121R/S35A/S48A/T118I/V127L/V306I/V36M/Y140S/Y91M)
HLA A*6802 = HLA A*6802 (Homo sapiens, UniProt P04439, A269V/D140Y/D185E/E176V/E277Q/E87N/F33Y/G231S/I121R/I166T/I218V/L180W/L300P/L318F/N151K/P208A/P217A/Q86R/R138H/R169H/S129P/T345S/V36M)
HLA B*0801 = HLA B*0801 (Homo sapiens, UniProt P01889, A93T/A95T/D138N/E176V/E187T/K202T/Q94N/R180D/S35A/V36M/Y33D/Y91F); assay: biochemical
HLA B*5401 = HLA B*5401 (Homo sapiens, UniProt P01889, A329T/C349S/D138N/D201E/E176V/E187T/E204Q/E69G/I76V/K202T/L119W/R155S/R180L/S121T/S35A/S48A/V127L/V306I/V36M/Y140L)
H-2 K^k = H-2 K^k (Mus musculus, UniProt P04223)
HLA B*5301 = HLA B*5301 (Homo sapiens, UniProt P01889, A329T/A93T/A95T/C349S/D201E/D98Y/E176V/E187L/E204Q/E69T/G107R/I218V/K202T/L105A/L119I/N104I/Q94N/R106L/R155S/R180L/S101N/S121R/S35A/S48A/T118I/V127L/V306I/V36M/Y140S/Y91F)

Sequence of H-2 D^d (P01900 whole entry, looked up): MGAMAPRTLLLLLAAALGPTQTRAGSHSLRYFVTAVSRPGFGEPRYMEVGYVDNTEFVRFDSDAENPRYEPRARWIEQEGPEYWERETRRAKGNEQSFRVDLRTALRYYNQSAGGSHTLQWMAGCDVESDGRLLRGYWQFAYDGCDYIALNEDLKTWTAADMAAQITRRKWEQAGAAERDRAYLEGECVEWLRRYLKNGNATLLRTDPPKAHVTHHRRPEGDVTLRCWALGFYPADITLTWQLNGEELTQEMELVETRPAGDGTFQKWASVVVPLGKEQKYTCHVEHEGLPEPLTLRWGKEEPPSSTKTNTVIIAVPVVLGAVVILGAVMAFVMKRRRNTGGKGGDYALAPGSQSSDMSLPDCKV
Sequence of H-2 K^k (P01887 21-119): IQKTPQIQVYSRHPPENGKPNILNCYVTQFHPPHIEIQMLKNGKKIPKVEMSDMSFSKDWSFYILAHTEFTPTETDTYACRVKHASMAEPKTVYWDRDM
Sequence of H-2 K^k (P04223 22-369): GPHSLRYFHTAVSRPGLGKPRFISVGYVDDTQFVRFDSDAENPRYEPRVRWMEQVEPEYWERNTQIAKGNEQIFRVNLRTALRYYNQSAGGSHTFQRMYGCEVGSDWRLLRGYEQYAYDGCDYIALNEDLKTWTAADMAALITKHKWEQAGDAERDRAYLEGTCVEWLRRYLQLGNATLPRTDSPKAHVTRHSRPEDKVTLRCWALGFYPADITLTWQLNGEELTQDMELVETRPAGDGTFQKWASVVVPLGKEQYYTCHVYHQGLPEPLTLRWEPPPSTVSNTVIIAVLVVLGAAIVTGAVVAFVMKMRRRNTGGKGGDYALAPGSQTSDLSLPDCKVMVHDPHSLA
Sequence of H-2 K^d (P01887 21-119): as the sequence (P01887 21-119) above
Sequence of H-2 K^d (P01902 22-368): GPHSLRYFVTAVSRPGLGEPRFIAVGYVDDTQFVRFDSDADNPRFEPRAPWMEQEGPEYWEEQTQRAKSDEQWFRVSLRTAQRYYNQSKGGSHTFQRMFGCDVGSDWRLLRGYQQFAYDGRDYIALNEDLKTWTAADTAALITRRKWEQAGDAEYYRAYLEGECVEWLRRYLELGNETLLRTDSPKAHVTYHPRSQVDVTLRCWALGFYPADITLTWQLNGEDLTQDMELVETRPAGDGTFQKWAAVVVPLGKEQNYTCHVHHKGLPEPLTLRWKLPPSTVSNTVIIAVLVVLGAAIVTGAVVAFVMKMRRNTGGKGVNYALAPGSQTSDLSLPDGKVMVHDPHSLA
Sequence of H-2 D^b (P01887 21-119): as the sequence (P01887 21-119) above
Sequence of H-2 D^b (P01899 25-362): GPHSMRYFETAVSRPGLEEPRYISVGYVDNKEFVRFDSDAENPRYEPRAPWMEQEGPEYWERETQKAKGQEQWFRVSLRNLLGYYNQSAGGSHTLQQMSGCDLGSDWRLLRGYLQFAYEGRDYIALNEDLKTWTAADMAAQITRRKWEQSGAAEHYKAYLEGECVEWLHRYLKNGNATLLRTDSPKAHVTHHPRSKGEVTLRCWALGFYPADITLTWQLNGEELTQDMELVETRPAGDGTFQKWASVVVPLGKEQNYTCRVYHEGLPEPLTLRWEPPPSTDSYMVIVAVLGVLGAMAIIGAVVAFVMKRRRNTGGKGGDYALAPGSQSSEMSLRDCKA

Sequence	Normalized average relative binding affinity(ARB) (HLA A*3201)	Normalized average relative binding affinity(ARB) (HLA B*1503)	Normalized average relative binding affinity(ARB) (HLA B*5101)	Normalized average relative binding affinity(ARB) (H-2 D^b)	Normalized average relative binding affinity(ARB) (HLA A*3001)	Normalized average relative binding affinity(ARB) (HLA B*3501)	Normalized average relative binding affinity(ARB) (HLA B*1501)	Normalized average relative binding affinity(ARB) (H-2 K^d)	Normalized average relative binding affinity(ARB) (HLA B*5802)	Normalized average relative binding affinity(ARB) (H-2 D^d)	Normalized average relative binding affinity(ARB) (HLA B*5801)	Normalized average relative binding affinity(ARB) (HLA A*6802)	Normalized average relative binding affinity(ARB) (HLA B*0801)	Normalized average relative binding affinity(ARB) (HLA B*5401)	Normalized average relative binding affinity(ARB) (H-2 K^k)	Normalized average relative binding affinity(ARB) (HLA B*5301)
XXXXHXXXX [3064.0087]	0.14	0.32	0.35	0.066	0.14	0.19	0.66	0.064	0.74	0.64	0.21	0.46	0.65	0.19	0.022	0.091
XXXXKXXXX [3064.0089]	0.16	0.13	0.29	0.032	0.16	0.12	0.31	0.011	0.58	0.44	0.11	0.14	0.47	0.049	0.091	0.042
XXXXTXXXX [3064.0097]	0.062	0.43	0.51	0.018	0.18	0.21	0.62	0.42	0.16	0.18	0.33	0.044	0.011	0.085	0.16	0.11
XXXXXAXXX [3064.0101]	0.83	0.45	0.43	0.62	0.34	0.21	0.30	0.26	0.91	0.51	0.28	0.82	0.011	0.20	0.83	0.65
XXXNXXXXX [3064.0072]	0.59	0.76	0.42	0.18	0.31	0.079	0.46	0.24	0.55	0.40	0.46	0.27	0.48	0.20	0.22	0.27
XXXXXXXVX [3064.0158]	0.62	0.34	0.32	0.35	0.19	0.37	0.38	0.37	0.26	0.52	0.20	0.17	0.48	0.10	0.38	0.51
XXXXXXXQX [3064.0154]	0.35	0.19	0.32	0.16	0.27	0.10	0.17	0.54	0.30	0.68	0.39	0.14	0.15	0.11	0.19	0.16
XXXXXXXRX [3064.0155]	0.26	0.11	0.36	0.068	0.35	0.072	0.15	0.49	0.37	0.46	0.13	0.13	0.30	0.059	0.10	0.46
